This is an account of results in patent publication US5352659A, “Endothelin analogs and uses thereof” (Takeda Chemical Industries, priority 1991, dated 1994).

Each structure is given as a SMILES string. Read-outs that look alike come from different tables or passages of the source. Bridge positions count the residues as written; N and C are the ends. Square brackets hold non-standard residues; d marks the D form. Peptide text beside a SMILES is read from it. Cha = N[C@@H](CC1CCCCC1)C(=O)O; Nle = CCCC[C@H](N)C(=O)O

Test [1] concerns the target endothelin receptor. Kind of test: Assay of affinity for receptor (inhibition of 125I-ET-1 binding to porcine myocardial membrane fraction). The note with it: for Receptor binding activity (specific activity): relative to ET-1 = 100. The method, then:
Assay of Affinity for Receptor
A membrane fraction prepared from the porcine heart was diluted to 0.15 mg/ml by using a buffer solution for assay, and 100 μl of the resulting suspension of the membrane fraction was poured into each assay tube to use for assay. To this suspension of the membrane fraction was added 2 μl of 5 nM ^125 I labeled endothelin-1 solution. Further, 3 μl of a test peptide solution was added thereto, followed by incubation at a temperature of 25° C. for 1 hour. Then, the resulting suspension was diluted with 900 μl of the buffer solution for assay cooled with ice, and thereafter separated into a supernatant and a precipitate by centrifugation at 12,000×g for 10 minutes. Cell membranes and an endothelin receptor embedded therein were contained in the precipitate, and radioactive iodine-labeled endothelin combined with the receptor was also recovered in the precipitate. Accordingly, the amount of radioactive iodine-labeled endothelin combined with the endothelin receptor was determined by measuring the amount of radioactive iodine contained in the precipitate with a gamma-ray counter.

The subject of test [2] is porcine coronary artery. Kind of test: Constrictor activity on porcine coronary smooth muscles. The note with it: for Maximum constriction (% 60 mM KCl): porcine coronary artery strips, normalized to 60 mM KCl response; for Constrictor activity (specific activity): relative to ET-1 = 100. The method, then:
(§1) Spiral strips 2 mm×15 mm prepared from the coronary right ramus circumflexus from which the adventitial connective tissues and the endothelial cells were removed were set to 4 ml organ baths. The tension of each strip was detected by a force displacement transducer UL-10GR (Minebea), and recorded by a polygraph (NEC Sanei). The organ baths were maintained at 37° C., and filled with a Krebs-Henseleit solution (composition: 118 mM NaCl, 4.7 mM KCl, 2.5 mM CaCl2, 1.2 mM KH2 PO4, 25.0 mM NaHCO3, 1.2 mM MgSO4, 10.0 mM glucose) gassed with 95% O2 and 5% CO2.
(§2) A tension of 1.25 to 1.5 g was applied to each of the strips, followed by equilibration for 1.5 hours. 60 mM KCl was repeatedly applied thereto at intervals of 30 minutes until the constriction response became constant. After additional equilibration for 1.5 hours, a sample for assay was given thereto. The constriction of the strips was normalized by the constriction response of the individual strips to 60 mM KCl and statistically processed.
(2) As to the antagonistic property of the peptides of the present invention to endothelin, the affinity for an endothelin receptor and the constrictor activity on porcine coronary smooth muscles (according to the method described in (1) described above) were assayed. The affinity for the receptor was assayed by the following method.

Test [3] relates to porcine coronary smooth muscles. The method, then: (1) Assay of Constrictor Suppressing Activity on Porcine Coronary Smooth Muscles
as §1, §2
pA2 is a negative logarithm value of a molar concentration of a competitive antagonist necessary for shifting in parallel a dose response curve for an active drug (for example, ET-1) alone to the high dose side by a factor of 2.

Setting [4] is: against cumulative endothelin-1, porcine coronary smooth muscles.

As to `CC[C@H](C)[C@H](NC(=O)[C@H](CC(=O)O)NC(=O)[C@H](CC(C)C)NC(=O)[C@H](Cc1c[nH]cn1)NC(=O)[C@@H]1CSSC[C@H](N)C(=O)N[C@@H](CO)C(=O)N[C@H]2CSSC[C@H](NC(=O)[C@H](CCC(=O)O)NC(=O)[C@H](CCCCN)NC(=O)[C@H](CC(=O)O)NC(=O)[C@H](CCSC)NC(=O)[C@H](CC(C)C)NC(=O)[C@H](CO)NC(=O)[C@H](CO)NC2=O)C(=O)N[C@@H](C(C)C)C(=O)N[C@@H](Cc2ccc(O)cc2)C(=O)N[C@@H](Cc2ccccc2)C(=O)N1)C(=O)N[C@H](C(=O)N[C@@H](Cc1c[nH]c2ccccc12)C(=O)O)[C@@H](C)CC` [ET-1, endothelin-1, reference compound], in test [1] (read-out: IC50, concentration required to prevent 50% of the binding of I125-ET1 to the porcine myocardial membrane fraction), the IC50 worked out at […]. Further, the “Receptor binding activity (specific activity)” value (“Receptor binding activity” for short) in test [1] amounted to […]. In addition, the “Maximum constriction (% 60 mM KCl)” value in test [2] is 120 % 60 mM KCl. Also, the EC50 in test [2] (porcine coronary artery, read-out: EC50 (% KCl), concentration which induces 50% of the constriction of the porcine coronary artery due to 60 mM KCl) came out at 1.6 nM. The “Constrictor activity (specific activity)” value in test [2] (porcine coronary artery) is […].
For `CC[C@H](C)[C@H](NC(=O)[C@H](CC(C)C)NC(=O)[C@@H](NC(=O)[C@H](CC(C)C)NC(=O)[C@H](Cc1c[nH]cn1)NC(=O)[C@@H]1CSSC[C@H](N)C(=O)N[C@@H](CO)C(=O)N[C@H]2CSSC[C@H](NC(=O)[C@H](CCC(=O)O)NC(=O)[C@H](CCCCN)NC(=O)[C@H](CC(=O)O)NC(=O)[C@H](CCSC)NC(=O)[C@H](CC(C)C)NC(=O)[C@H](CO)NC(=O)[C@H](CO)NC2=O)C(=O)N[C@@H](C(C)C)C(=O)N[C@@H](Cc2ccc(O)cc2)C(=O)N[C@@H](Cc2ccccc2)C(=O)N1)[C@@H](C)O)C(=O)N[C@@H](Cc1c[nH]c2ccccc12)C(=O)O` [Example 1, [Thr^18, Leu^19]-ET-1] (H-CSCSSLMDKECVYFCHLTLIW-OH; disulfide 1-15, 3-11), in test [1], the “Receptor binding activity” value came to 40. The molecule further showed a pA2 in test [3] (setting [4]) of 7.7. In addition, the “Maximum constriction (% 60 mM KCl)” value in test [2] is recorded as 4 % 60 mM KCl. The “Constrictor activity (specific activity)” value in test [2] (porcine coronary artery) is reported as less than 0.1.
On to `CC[C@H](C)[C@H](NC(=O)[C@H](CC1CCCCC1)NC(=O)[C@@H](NC(=O)[C@H](CC(C)C)NC(=O)[C@H](Cc1c[nH]cn1)NC(=O)[C@@H]1CSSC[C@H](N)C(=O)N[C@@H](CO)C(=O)N[C@H]2CSSC[C@H](NC(=O)[C@H](CCC(=O)O)NC(=O)[C@H](CCCCN)NC(=O)[C@H](CC(=O)O)NC(=O)[C@H](CCSC)NC(=O)[C@H](CC(C)C)NC(=O)[C@H](CO)NC(=O)[C@H](CO)NC2=O)C(=O)N[C@@H](C(C)C)C(=O)N[C@@H](Cc2ccc(O)cc2)C(=O)N[C@@H](Cc2ccccc2)C(=O)N1)[C@@H](C)O)C(=O)N[C@@H](Cc1c[nH]c2ccccc12)C(=O)O` [Example 2, [Thr^18, Cha^19]-ET-1] (H-CSCSSLMDKECVYFCHLT[Cha]IW-OH; disulfide 1-15, 3-11), for which the “Receptor binding activity” value in test [1] amounted to 23. The pA2 in test [3] (setting [4]) was 7.7. The “Maximum constriction (% 60 mM KCl)” value in test [2] was 2 % 60 mM KCl. In addition, the “Constrictor activity (specific activity)” value in test [2] (porcine coronary artery) is less than 0.1.
Turning to `CC[C@H](C)[C@H](NC(=O)[C@H](Cc1ccccc1)NC(=O)[C@@H](NC(=O)[C@H](CC(C)C)NC(=O)[C@H](Cc1c[nH]cn1)NC(=O)[C@@H]1CSSC[C@H](N)C(=O)N[C@@H](CO)C(=O)N[C@H]2CSSC[C@H](NC(=O)[C@H](CCC(=O)O)NC(=O)[C@H](CCCCN)NC(=O)[C@H](CC(=O)O)NC(=O)[C@H](CCSC)NC(=O)[C@H](CC(C)C)NC(=O)[C@H](CO)NC(=O)[C@H](CO)NC2=O)C(=O)N[C@@H](C(C)C)C(=O)N[C@@H](Cc2ccc(O)cc2)C(=O)N[C@@H](Cc2ccccc2)C(=O)N1)[C@@H](C)O)C(=O)N[C@@H](Cc1c[nH]c2ccccc12)C(=O)O` [Example 3, [Thr^18, Phe^19]-ET-1] (H-CSCSSLMDKECVYFCHLTFIW-OH; disulfide 1-15, 3-11), the “Receptor binding activity” value in test [1] came out at 9.0. In test [3], this molecule yielded a Relative potency of 32 and a pA2 of 7.2. Besides, in test [2], the “Maximum constriction (% 60 mM KCl)” value was determined as 4 % 60 mM KCl. Also, the “Constrictor activity (specific activity)” value in test [2] (porcine coronary artery) is less than 0.1.
Take `CC[C@H](C)[C@H](NC(=O)[C@H](CC(N)=O)NC(=O)[C@@H](NC(=O)[C@H](CC(C)C)NC(=O)[C@H](Cc1c[nH]cn1)NC(=O)[C@@H]1CSSC[C@H](N)C(=O)N[C@@H](CO)C(=O)N[C@H]2CSSC[C@H](NC(=O)[C@H](CCC(=O)O)NC(=O)[C@H](CCCCN)NC(=O)[C@H](CC(=O)O)NC(=O)[C@H](CCSC)NC(=O)[C@H](CC(C)C)NC(=O)[C@H](CO)NC(=O)[C@H](CO)NC2=O)C(=O)N[C@@H](C(C)C)C(=O)N[C@@H](Cc2ccc(O)cc2)C(=O)N[C@@H](Cc2ccccc2)C(=O)N1)[C@@H](C)O)C(=O)N[C@@H](Cc1c[nH]c2ccccc12)C(=O)O` [Example 5, [Thr^18, Asn^19]-ET-1] (H-CSCSSLMDKECVYFCHLTNIW-OH; disulfide 1-15, 3-11): the “Receptor binding activity” value in test [1] was found to be 1.6. Besides, the “Maximum constriction (% 60 mM KCl)” value in test [2] is listed as 9 % 60 mM KCl. The “Constrictor activity (specific activity)” value in test [2] (porcine coronary artery) is less than 0.1.
As to `CC[C@H](C)[C@H](NC(=O)[C@H](CC(C)C)NC(=O)[C@H](CC(N)=O)NC(=O)[C@H](CC(C)C)NC(=O)[C@H](Cc1c[nH]cn1)NC(=O)[C@@H]1CSSC[C@H](N)C(=O)N[C@@H](CO)C(=O)N[C@H]2CSSC[C@H](NC(=O)[C@H](CCC(=O)O)NC(=O)[C@H](CCCCN)NC(=O)[C@H](CC(=O)O)NC(=O)[C@H](CCSC)NC(=O)[C@H](CC(C)C)NC(=O)[C@H](CO)NC(=O)[C@H](CO)NC2=O)C(=O)N[C@@H](C(C)C)C(=O)N[C@@H](Cc2ccc(O)cc2)C(=O)N[C@@H](Cc2ccccc2)C(=O)N1)C(=O)N[C@@H](Cc1c[nH]c2ccccc12)C(=O)O` [Example 7, [Asn^18, Leu^19]-ET-1] (H-CSCSSLMDKECVYFCHLNLIW-OH; disulfide 1-15, 3-11), the “Receptor binding activity” value in test [1] is 12. Besides, the “Maximum constriction (% 60 mM KCl)” value in test [2] was 4 % 60 mM KCl. The “Constrictor activity (specific activity)” value in test [2] (porcine coronary artery) is less than 0.1.
In the case of `CC[C@H](C)[C@H](NC(=O)[C@H](CC(C)C)NC(=O)[C@@H](NC(=O)[C@H](CC(C)C)NC(=O)[C@H](Cc1c[nH]cn1)NC(=O)[C@@H]1CSSC[C@H](N)C(=O)N[C@@H]([C@@H](C)O)C(=O)N[C@H]2CSSC[C@H](NC(=O)[C@H](CCC(=O)O)NC(=O)[C@H](CCCCN)NC(=O)[C@H](CC(=O)O)NC(=O)[C@H](CCCCN)NC(=O)[C@H](Cc3ccc(O)cc3)NC(=O)[C@H]([C@@H](C)O)NC(=O)[C@H](Cc3ccccc3)NC2=O)C(=O)N[C@@H](C(C)C)C(=O)N[C@@H](Cc2ccc(O)cc2)C(=O)N[C@@H](Cc2ccc(O)cc2)C(=O)N1)[C@@H](C)O)C(=O)N[C@@H](Cc1c[nH]c2ccccc12)C(=O)O` [Example 9, [Thr^18, Leu^19]-ET-3] (H-CTCFTYKDKECVYYCHLTLIW-OH; disulfide 1-15, 3-11), the “Receptor binding activity” value in test [1] was found to be 4.0. Moreover, the “Maximum constriction (% 60 mM KCl)” value in test [2] was determined as 12 % 60 mM KCl. In test [2] (porcine coronary artery), the “Constrictor activity (specific activity)” value is less than 0.1.
As for `CCCC[C@@H]1NC(=O)[C@H](CC(C)C)NC(=O)[C@H](CO)NC(=O)[C@H](CO)NC(=O)[C@@H]2CSSC[C@H](NC(=O)[C@H](CCC(=O)O)NC(=O)[C@H](CCCCN)NC(=O)[C@H](CC(=O)O)NC1=O)C(=O)N[C@@H](C(C)C)C(=O)N[C@@H](Cc1ccc(O)cc1)C(=O)N[C@@H](Cc1ccccc1)C(=O)N[C@H](C(=O)N[C@@H](Cc1c[nH]cn1)C(=O)N[C@@H](CC(C)C)C(=O)N[C@H](C(=O)N[C@@H](CC(C)C)C(=O)N[C@H](C(=O)N[C@@H](Cc1c[nH]c3ccccc13)C(=O)O)[C@@H](C)CC)[C@@H](C)O)CSSC[C@H](N)C(=O)N[C@@H](CO)C(=O)N2` [Example 17, [Nle^7, Thr^18, Leu^19]-ET-1] (H-CSCSSL[Nle]DKECVYFCHLTLIW-OH; disulfide 1-15, 3-11), the “Receptor binding activity” value in test [1] was 27. Also, in test [2], the “Maximum constriction (% 60 mM KCl)” value is 9 % 60 mM KCl. In test [2] (porcine coronary artery), the “Constrictor activity (specific activity)” value is reported as less than 0.1.
